In patent US7419997B2, “Tetrahydrocarbazole derivatives and their pharmaceutical use” (SmithKline Beecham Corporation, priority 2003, dated 2008) one finds IC50 data, which are given here for 32 compounds.

For this assay, the system named is episomal HPV16 DNA in W12-20850 cells. Briefly: W-12 cellular assay (episomal HPV-16 DNA, hybrid capture). It is filed as cell-based, HPV16 (human papillomavirus). The following applies: Human papillomavirus 16, 96 h, four days incubation, episomal HPV-16 DNA quantified by hybrid capture, inhibition relative to untreated control cells. How it is done:
Compounds of the current invention are believed useful in the treatment and/or prophylaxis of conditions and diseases associated with HPV infection. Activity mediated through HPV was determined using the following W-12 cellular assay.
The W12 cell line used contains HPV16 DNA and was derived from a low-grade cervical dysplasia tissue by Margaret Stanley and subsequently clonally selected by Paul Lambert (University of Wisconsin). One of these clones, W12-20850, contains 1000 copies of episomal HPV16 DNA and was used in the cell-based assay. W12-20850 cells were routinely cultured with a gamma-irradiated (6000 rads) feeder layer of 3T3 cells. Assays, however, were run in the absence of a 3T3 feeder layer. W12-20850 and 3T3 cells were routinely split when they were sub-confluent. W12-20850 were grown in W12 Medium which is constituted of 25% DMEM (Gibco BRL, Cat # 12430-047), 75% F12 Media (Gibco BRL, Cat # 11765-021) and 2.5% FBS. The additives include […] Adenine (Sigma, Cat # A-9795), 0.4 mg/ml Hydrocortisone (Calbiochem, Cat # 386698), […] Bovine Insulin (Sigma, Cat # I-1882), 8.4 ng/ml cholera toxin (Fluka, Cat # 26694) and 10 ng/ml EGF (Invitrogen, Cat # 13247-051). 3T3 cells were grown in DMEM containing 10% FBS. Cell lines were incubated at 37° C., in the presence of 5% CO2.
For the assay, W12-20850 cells were seeded into a 96 well plate-containing compound. Plates were incubated at 37° C. in the presence of 5% CO2, for four days. On the fourth day, cells were lysed and the amount of episomal HPV-16 DNA was quantified using a non-radioactive hybrid capture technique with HPV-16 specific capture and detection probes. The percent inhibition relative to untreated control cells was then determined.
The hybrid capture assay is run in a 96 well plate format. Hybridization plates (Nunc Maxisorb Cat # 450320) were coated with a mixture of capture probe and ReactiBind solution for at least 4 hours and then washed with 0.2)(SSC, 0.05% Tween20 (SSCT) prior to blocking with 150 μl/well of 0.2 N NaOH, 1% Igepal, 10 mg/ml hsDNA for 6-8 hours. The hybridization was carried out by mixing 271 μl of lysed cells with 45 μl of denatured detection probe in 6M guanidine isothiocyanate. To prevent evaporation, 50 μl of mineral oil was added to each well. The plate was then heated to 90° C. for 6.5 minutes and the hybridization continued at 42° C. overnight. Assay plates were washed 6 times with SSC/T. Anti-digoxigenin HRP-conjugated Ab (Boehringer Mannheim 1207733, 1:5000) was incubated in the wells for 30 min at room temperature and washed with PBS/0.05% Tween-20. SuperSignal LBA substrate (Pierce Cat # 37070) was added, and chemiluminescence was measured using Wallac 1420 Victor plate reader.

The compound `Cc1ccc2[nH]c3c(c2c1)CCCC3NC(=O)c1ccccc1` (centres unmarked) [Example 35, N-(6-Methyl-2,3,4,9-tetrahydro-1H-carbazol-1-yl)benzamide] had an IC50 of 184 nM. Compound `O=C(NC1CCCc2c1[nH]c1ccc(Br)cc21)c1ccccc1F` (centres unmarked) [Example 29, N-(6-Bromo-2,3,4,9-tetrahydro-1H-carbazol-1-yl)-2-fluorobenzamide] gave an IC50 of 9 nM. To `O=C(N[C@H]1CCCc2c1[nH]c1ccc(Cl)cc21)c1ccccc1F` [Example 46C, N-[(1S)-6-chloro-2,3,4,9-tetrahydro-1H-carbazol-1-yl]-2-fluorobenzamide] belongs over 3000 nM; to `Cc1cccc(C(=O)NC2CCCc3c2[nH]c2ccc(Br)cc32)c1` (centres unmarked) [Example 28, N-(6-Bromo-2,3,4,9-tetrahydro-1H-carbazol-1-yl)-3-methylbenzamide], 23 nM.

In the case of `Cn1ccc(C(=O)NC2CCCc3c2[nH]c2ccc(Cl)cc32)n1` (centres unmarked) [Example 49, N-(6-Chloro-2,3,4,9-tetrahydro-1H-carbazol-1-yl)-1-methyl-1H-pyrazole-3-carboxamide], the IC50 amounted to 1650 nM. `O=C(NC1CCCc2c1[nH]c1ccc(Br)cc21)c1ccccn1` (centres unmarked) [Example 38, N-(6-Bromo-2,3,4,9-tetrahydro-1H-carbazol-1-yl)pyridine-2-carboxamide] returned an IC50 of under 10 nM. `O=C(NC1CCCc2c1[nH]c1ccc(Br)cc21)c1ccc(Cl)cc1` (centres unmarked) [Example 23, N-(6-Bromo-2,3,4,9-tetrahydro-1H-carbazol-1-yl)4-chlorobenzamide] had an IC50 of 17 nM.

`O=C(NC1CCCc2c1[nH]c1ccc(Br)cc21)c1cccnc1` (centres unmarked) [Example 39, N-(6-Bromo-2,3,4,9-tetrahydro-1H-carbazol-1-yl)nicotinamide] had an IC50 of 130 nM. Consider `O=C(NC1CCCc2c1[nH]c1ccc(Cl)cc21)c1c[nH]cn1` (centres unmarked) [Example 50, N-(6-Chloro-2,3,4,9-tetrahydro-1H-carbazol-1-yl)-1H-imidazole-4-carboxamide], for which 440 nM corresponded to half-maximal inhibition (IC50).

As for `O=C(NC1CCCc2c1[nH]c1ccc(Br)cc21)c1cccc(F)c1` (centres unmarked) [Example 26, N-(6-Bromo-2,3,4,9-tetrahydro-1H-carbazol-1-yl)-3-fluorobenzamide], the half-maximal inhibitory concentration (IC50) is 14 nM. With `O=C(NC1CCCc2c1[nH]c1ccc(Br)cc21)c1ccccc1[N+](=O)[O-]` (centres unmarked) [Example 31, N-(6-Bromo-2,3,4,9-tetrahydro-1H-carbazol-1-yl)-2-nitrobenzamide], the IC50 is over 7300 nM. On to `O=C(N[C@@H]1CCCc2c1[nH]c1ccc(Cl)cc21)c1ccccc1` [Example 36B, N-[(1R)-6-chloro-2,3,4,9-tetrahydro-1H-carbazol-1-yl]benzamide], for which the IC50 is 20 nM.

On to `O=C(NC1CCCc2c1[nH]c1ccc(Br)cc21)c1ccc(Cl)nc1` (centres unmarked) [Example 40, N-(6-Bromo-2,3,4,9-tetrahydro-1H-carbazol-1-yl)-6-chloronicotinamide], for which the IC50 is 24 nM. Turning to `O=C(N[C@@H]1CCCc2c1[nH]c1ccc(Cl)cc21)c1ccccc1F` [Example 46B, N-[(1R)-6-chloro-2,3,4,9-tetrahydro-1H-carbazol-1-yl]-2-fluorobenzamide], half-maximal inhibition (IC50) required 7 nM.

Compound `COc1ccc(NC(=O)NC2CCCc3c2[nH]c2ccc(Br)cc32)cc1` (centres unmarked) [Example 10, N-(6-Bromo-2,3,4,9-tetrahydro-1H-carbazol-1-yl)-N′-(4-methoxyphenyl)urea] yielded an IC50 of 24000 nM. Under `CN(C)c1ccc(NC(=O)NC2CCCc3c2[nH]c2ccc(Br)cc32)cc1` (centres unmarked) [Example 13, N-(6-Bromo-2,3,4,9-tetrahydro-1H-carbazol-1-yl)-N′-[4-(dimethylamino)phenyl]urea] stands 237 nM. `Cn1cncc1C(=O)NC1CCCc2c1[nH]c1ccc(Cl)cc21` (centres unmarked) [Example 47, N-(6-Chloro-2,3,4,9-tetrahydro-1H-carbazol-1-yl)-1-methyl-1H-imidazole-5-carboxamide]: the IC50 worked out at 810 nM. Under `O=C(N[C@H]1CCCc2c1[nH]c1ccc(Cl)cc21)c1ccccc1` [Example 36C, N-[(1S)-6-chloro-2,3,4,9-tetrahydro-1H-carbazol-1-yl]benzamide] stands over 10000 nM.

As to `O=C(NC1CCCc2c1[nH]c1ccc(Cl)cc21)c1cc[nH]n1` (centres unmarked) [Example 51, N-(6-Chloro-2,3,4,9-tetrahydro-1H-carbazol-1-yl)-1H-pyrazole-3-carboxamide], the IC50 turned out to be 73 nM. Under `Cn1nccc1C(=O)NC1CCCc2c1[nH]c1ccc(Cl)cc21` (centres unmarked) [Example 48, N-(6-Chloro-2,3,4,9-tetrahydro-1H-carbazol-1-yl)-1-methyl-1H-pyrazole-5-carboxamide] stands 2240 nM; under `O=C(NC1CCCc2c1[nH]c1ccc(Br)cc21)c1ccncc1` (centres unmarked) [Example 41, N-(6-Bromo-2,3,4,9-tetrahydro-1H-carbazol-1-yl)isonicotinamide], 180 nM; under `O=C(NC1CCCc2c1[nH]c1ccc(Br)cc21)c1ccc([N+](=O)[O-])cc1` (centres unmarked) [Example 22, N-(6-Bromo-2,3,4,9-tetrahydro-1H-carbazol-1-yl)-4-nitrobenzamide], 45 nM. The compound `O=C(NC1CCCc2c1[nH]c1ccc(Cl)cc21)c1ccccn1` (centres unmarked) [Example 45A, N-(6-Chloro-2,3,4,9-tetrahydro-1H-carbazol-1-yl)-2-pyridinecarboxamide] had an IC50 of 10 nM. As to `O=C(CCc1ccccc1)NC1CCCc2c1[nH]c1ccc(Br)cc21` (centres unmarked) [Example 16, N-(6-Bromo-2,3,4,9-tetrahydro-1H-carbazol-1-yl)-3-phenylpropanamide], the IC50 is 1200 nM. With `O=C(NC1CCCc2c1[nH]c1ccc(Cl)cc21)c1ccccc1F` (centres unmarked) [Example 46A, N-(6-Chloro-2,3,4,9-tetrahydro-1H-carbazol-1-yl)-2-fluorobenzamide], the IC50 turned out to be 12 nM.

`Cc1ccc(C(=O)NC2CCCc3c2[nH]c2ccc(Br)cc32)cc1` (centres unmarked) [Example 24, N-(6-Bromo-2,3,4,9-tetrahydro-1H-carbazol-1-yl)-4-methylbenzamide]: the IC50 turned out to be 8 nM.

Consider `O=C(Nc1ccccc1)NC1CCCc2c1[nH]c1ccccc21` (centres unmarked) [Example 42, N-Phenyl-N′-(2,3,4,9-tetrahydro-1H-carbazol-1-yl)urea], for which the IC50 was over 10000 nM.

The compound `O=C(NC1CCCc2c1[nH]c1ccc(Br)cc21)c1ccccc1` (centres unmarked) [Example 14A, N-(6-Bromo-2,3,4,9-tetrahydro-1H-carbazol-1-yl)benzamide] showed an IC50 of 32 nM.

`Cc1ccc(S(=O)(=O)NC2CCCc3c2[nH]c2ccc(Br)cc32)cc1` (centres unmarked) [Example 37, N-(6-Bromo-2,3,4,9-tetrahydro-1H-carbazol-1-yl)-4-methylbenzenesulfonamide] came in with an IC50 of 24 nM. As for `O=C(NC1CCCc2c1[nH]c1ccc(Br)cc21)c1ccc(C(F)(F)F)cc1` (centres unmarked) [Example 25, N-(6-Bromo-2,3,4,9-tetrahydro-1H-carbazol-1-yl)-4-(trifluoromethyl)benzamide], the IC50 worked out at 58 nM. `O=C(NC1CCCc2c1[nH]c1ccc(Br)cc21)c1c(F)cccc1F` (centres unmarked) [Example 52, N-(6-bromo-2,3,4,9-tetrahydro-1H-carbazol-1-yl)-2,6-difluorobenzamide] came in with an IC50 of 45 nM. `O=C(NC1CCCc2c1[nH]c1ccccc21)c1ccccc1` (centres unmarked) [Example 34, N-(2,3,4,9-Tetrahydro-1H-carbazol-1-yl)benzamide]: the IC50 was over 10000 nM.
